In ChEMBL document CHEMBL1201862, “PubChem BioAssay data set” (2004):
Activity calls are given as the source filed them.

Assays:
[1] = Dd2 malaria parasite growth inhibition potency – SYBR Green, dry powder samples, dose response (AID 1159566); format: functional, cell-based;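 note: potency for growth inhibition with lower SYBR green DNA signal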
[2] = growth inhibition of PfATP4-mutant resistant parasites – NITD609-resistant line, SYBR Green, dry powder, dose response (AID 1159571); format: functional, cell-based;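 note: parasites synchronized at ring stage by sorbitol before testing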
[3] = toxicity to human HepG2 hepatoma cells – cell-based, plate reader, dry powder samples, cytotoxicity control, dose response (AID 1159569); format: functional;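 note: inhibitor potency with signal falling toward the positive control level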
[4] = P. falciparum Dd2 growth inhibitors, dose response, SYBR Green, cherry-picked samples (AID 1159567); format: functional, cell-based
[5] = toxicity to human hepatoma HepG2 cells – cell-based, cherry-picked samples, cytotoxicity control, dose response (AID 1159577); format: functional
[6] = growth inhibition of yeast DHODH-expressing 3D7 parasites – SYBR Green, dry powder samples, dose response (AID 1159570); format: functional, cell-based;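 note: parasite growth measured after 72 hours of compound exposure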
[7] = biological target: Beta-galactosidase (Escherichia coli, UniProt Q8VNN2); test: Dose response counterscreen for EBI2 assay utilizing the enzyme, b-galactosidase.; format: functional
[8] = biological target: T1, Histone-lysine N-methyltransferase NSD2 (Homo sapiens, UniProt O96028); format: biochemical
T1 sequence (O96028 whole entry): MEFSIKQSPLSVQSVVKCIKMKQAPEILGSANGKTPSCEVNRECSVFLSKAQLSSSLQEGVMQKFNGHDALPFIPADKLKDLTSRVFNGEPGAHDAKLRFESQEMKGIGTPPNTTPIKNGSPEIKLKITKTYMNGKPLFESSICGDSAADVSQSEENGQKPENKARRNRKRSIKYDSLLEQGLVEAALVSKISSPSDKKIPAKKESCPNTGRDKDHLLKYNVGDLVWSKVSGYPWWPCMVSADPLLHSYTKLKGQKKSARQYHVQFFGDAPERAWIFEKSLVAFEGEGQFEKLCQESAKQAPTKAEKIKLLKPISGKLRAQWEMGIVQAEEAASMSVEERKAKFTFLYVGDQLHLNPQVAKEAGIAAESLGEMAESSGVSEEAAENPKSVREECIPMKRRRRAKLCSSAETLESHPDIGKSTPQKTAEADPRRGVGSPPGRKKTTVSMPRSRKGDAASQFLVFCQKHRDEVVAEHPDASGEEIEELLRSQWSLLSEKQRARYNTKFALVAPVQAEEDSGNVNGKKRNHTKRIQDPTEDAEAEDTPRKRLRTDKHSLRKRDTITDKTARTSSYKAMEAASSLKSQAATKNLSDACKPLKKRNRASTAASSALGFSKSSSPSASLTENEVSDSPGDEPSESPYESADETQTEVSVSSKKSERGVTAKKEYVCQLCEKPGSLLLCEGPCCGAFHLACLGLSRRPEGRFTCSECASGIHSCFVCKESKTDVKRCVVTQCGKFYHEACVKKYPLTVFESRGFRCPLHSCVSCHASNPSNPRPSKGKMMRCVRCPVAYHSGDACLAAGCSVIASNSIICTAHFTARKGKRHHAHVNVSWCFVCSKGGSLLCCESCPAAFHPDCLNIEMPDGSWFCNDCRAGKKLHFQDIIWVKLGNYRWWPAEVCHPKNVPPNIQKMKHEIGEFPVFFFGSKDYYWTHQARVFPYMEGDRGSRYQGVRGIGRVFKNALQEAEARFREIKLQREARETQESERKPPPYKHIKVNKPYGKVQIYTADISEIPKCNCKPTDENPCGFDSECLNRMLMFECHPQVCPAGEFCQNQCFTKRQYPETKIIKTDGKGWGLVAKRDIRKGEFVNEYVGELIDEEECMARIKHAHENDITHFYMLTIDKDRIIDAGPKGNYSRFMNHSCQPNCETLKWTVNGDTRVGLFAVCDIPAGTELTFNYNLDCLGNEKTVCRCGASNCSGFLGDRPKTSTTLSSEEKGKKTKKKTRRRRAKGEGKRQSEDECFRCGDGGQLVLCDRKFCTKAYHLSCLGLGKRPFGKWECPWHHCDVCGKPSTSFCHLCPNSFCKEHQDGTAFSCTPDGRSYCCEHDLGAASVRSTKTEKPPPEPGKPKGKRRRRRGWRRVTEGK

[9] = biological target: T2, Sentrin-specific protease 8 (Homo sapiens, UniProt Q96LD8); format: functional
T2 sequence (Q96LD8 whole entry): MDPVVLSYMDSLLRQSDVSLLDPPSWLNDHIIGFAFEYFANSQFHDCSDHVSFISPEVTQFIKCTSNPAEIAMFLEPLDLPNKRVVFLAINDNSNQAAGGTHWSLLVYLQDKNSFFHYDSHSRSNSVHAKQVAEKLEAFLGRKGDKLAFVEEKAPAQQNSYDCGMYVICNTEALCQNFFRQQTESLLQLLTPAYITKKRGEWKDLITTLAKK

[10] = biological target: T2, Sentrin-specific protease 8; format: functional; remark: listed apart in the source
[11] = luciferase reporter signal suppression in cells – H4 neuroglioma cells, luminescence, dose response (AID 1990); format: functional, cell-based
[12] = DRD fibroblast viability loss – cell-based, non-viral oncogenic, luminescence, dose response (AID 1934); format: functional; details: Homo sapiens
[13] = alpha-synuclein stem-loop luciferase translation blockers – H4 neuroglioma cells, luminescence, confirmation (AID 1988); format: functional, cell-based
[14] = system: BJ; test: cells; format: functional, cell-based; details: Homo sapiens
[15] = system: BJ; test: BJ-TERT fibroblast viability loss – cell-based, RAS-independent, luminescence, dose response (AID 1933); format: functional; details: Homo sapiens
[16] = system: BJ; test: BJ-TERT-LT-ST fibroblast viability loss – cell-based, RAS-independent, luminescence, dose response (AID 1935); format: functional; details: Homo sapiens;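 note: BJ fibroblasts immortalized with TERT plus LT and ST oncogenes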
[17] = Luminescence Cell-Based Dose Response HTS to Identify Inhibitors of 5'UTR Stem-Loop Driven Prion Protein mRNA Translation in H4 Neuroglioblastoma Cells. [Related pubchem assays: 1827 (Project Summary), 1813 (Primary HTS)]; format: functional

Beta-galactosidase, sequence (Q8VNN2 whole entry): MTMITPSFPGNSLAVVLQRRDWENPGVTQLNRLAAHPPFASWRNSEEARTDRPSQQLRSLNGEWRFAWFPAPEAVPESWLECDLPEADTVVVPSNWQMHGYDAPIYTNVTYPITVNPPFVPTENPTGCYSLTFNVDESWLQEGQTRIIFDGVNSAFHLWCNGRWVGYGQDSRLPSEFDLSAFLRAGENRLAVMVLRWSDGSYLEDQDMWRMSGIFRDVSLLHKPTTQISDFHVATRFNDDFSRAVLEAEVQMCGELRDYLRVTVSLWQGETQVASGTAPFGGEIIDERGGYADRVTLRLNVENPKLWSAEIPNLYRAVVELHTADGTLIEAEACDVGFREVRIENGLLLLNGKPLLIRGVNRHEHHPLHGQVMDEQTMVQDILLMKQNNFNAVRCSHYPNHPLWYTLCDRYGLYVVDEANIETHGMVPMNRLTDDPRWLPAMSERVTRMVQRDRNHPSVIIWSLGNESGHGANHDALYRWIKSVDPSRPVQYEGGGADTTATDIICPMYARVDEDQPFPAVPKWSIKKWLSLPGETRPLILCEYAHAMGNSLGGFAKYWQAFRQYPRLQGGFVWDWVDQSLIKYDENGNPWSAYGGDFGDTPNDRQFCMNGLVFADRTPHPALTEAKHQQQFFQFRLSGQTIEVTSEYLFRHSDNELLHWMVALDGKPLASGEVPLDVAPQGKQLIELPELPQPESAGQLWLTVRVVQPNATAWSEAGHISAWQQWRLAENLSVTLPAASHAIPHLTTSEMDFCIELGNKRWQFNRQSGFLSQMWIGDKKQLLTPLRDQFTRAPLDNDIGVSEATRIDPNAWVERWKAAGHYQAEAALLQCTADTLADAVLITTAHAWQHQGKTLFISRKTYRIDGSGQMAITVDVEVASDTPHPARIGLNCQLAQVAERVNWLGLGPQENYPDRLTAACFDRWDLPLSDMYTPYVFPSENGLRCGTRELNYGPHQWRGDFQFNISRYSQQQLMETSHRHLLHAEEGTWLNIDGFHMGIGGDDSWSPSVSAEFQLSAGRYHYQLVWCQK

Question: For `N#Cc1ccc(-c2ccc([C@H]3[C@@H]4CN(C(=O)C5CCCCC5)C[C@H]3N4)cc2)cc1`, which AC50 [1] is on record?
Answer: The AC50 was 3.47 µM (active).

Question: What about the AC50 [2] of the same molecule?
Answer: Its AC50 is 4.16 µM (active).

Question: And the AC50 [3]?
Answer: Its AC50 is 42.9 µM (active).

Question: And the AC50 [4]?
Answer: The AC50 was 2.2 µM (active).

Question: And the AC50 [5]?
Answer: The AC50 was 24.1 µM (active).

Question: What about the AC50 [6] of the same molecule?
Answer: Its AC50 is 3.78 µM (active).

Question: For `O=C(COc1ccc(Cl)cc1)N1CCN(S(=O)(=O)c2ccc(Cl)cc2)CC1`, which IC50 [7] is on record?
Answer: Its IC50 is > 80 µM (inactive).

Question: What does the source list for `COc1ccc(-c2ccc(C(c3c(C)n[nH]c3O)c3c(C)n[nH]c3O)o2)c([N+](=O)[O-])c1`?
Answer: AC50 [8]: > 20 µM (inactive); IC50 [9]: 28.7 µM (active); IC50 [10]: 15.6 µM (active)

Question: Which IC50 [7] does the source give for `CCN1CCN(C(=O)/C=C/c2ccc(C(C)C)cc2)CC1` here?
Answer: Its IC50 is > 80 µM (inactive).

Question: With `O=C(c1ccco1)N1CCN(C(=O)c2cc3c(s2)-c2ccccc2OC3)CC1` as the molecule, how does the IC50 [7] read?
Answer: The IC50 was > 80 µM (inactive).

Question: Which EC50 [11] does the source give for `COc1ccccc1N1CCN(C(=O)c2ccc3[nH]c(C)c(C)c3c2)CC1` here?
Answer: Its EC50 is 3.53 µM (active).

Question: What about the EC50 [12] of the same molecule?
Answer: Its EC50 is 2.4 µM (active).

Question: And the EC50 [13]?
Answer: Its EC50 is 190 nM (active).

Question: And the EC50 [14]?
Answer: The EC50 was 68.5 µM (active).

Question: What about the EC50 [15] of the same molecule?
Answer: Its EC50 is 2.61 µM (active).

Question: And the IC50 [7]?
Answer: The IC50 was > 80 µM (inactive).

Question: And the EC50 [16]?
Answer: The EC50 was 2.22 µM (inconclusive).

Question: What about the EC50 [17] of the same molecule?
Answer: The EC50 was 2.14 µM (active).

Question: For `N#CC(=C1CCCC1)c1nc(-c2ccc(Cl)cc2)cs1`, which IC50 [7] is on record?
Answer: Its IC50 is > 80 µM (inactive).
